Consider three compounds from ChEMBL document CHEMBL1136505, “Myxovirescin analogues via macrocyclic ring-closing metathesis” (2003).

Structures are written as SMILES. ≈ marks a conversion by molar mass, not a printed value. Calls of active or inactive are those of the source. The calls are words filed in the database; no cut-off is given here.

A word on the MIC: it is the lowest concentration found to suppress growth. A high value points to weaker potency.

The subject of assay [1] is Porphyromonas canoris. The assay can be described thus: Antibacterial activity against Porphyromonas canoris (ATCC NCTC 12835) at a concentration of 200 ug/mL; Active. Type of assay: functional, organism-based.
Assay [2] deals with Corynebacterium sp. Nature of the assay: Antibacterial activity against Corynebacterium sp. (ATCC 68984) at a concentration of 200 ug/mL; not active. In kind it is functional, organism-based.
The test system of assay [3] is Pasteurella multocida. The assay can be described thus: Antibacterial activity against Pasteurella multocida (ATCC 63560) at a concentration of 200 ug/mL; not active. In kind it is functional, organism-based.
Assay [4] deals with Pasteurella sp. The assay can be described thus: Antibacterial activity against Pasteurella sp.(ATCC 71886) at a concentration of 200 ug/mL; not active. Type of assay: functional, organism-based.
Assay [5] concerns Actinomyces sp. The assay can be described thus: Antibacterial activity against Actinomyces sp.(ATCC 70710) at a concentration of 200 ug/mL; not active. Type of assay: functional, organism-based.
Assay [6] deals with Schaalia meyeri. Nature of the assay: Antibacterial activity against Actinomyces meyeri (ATCC 61789) at a concentration of 200 ug/mL; Active. In kind it is functional, organism-based.
Assay [7] deals with Prevotella buccae. Nature of the assay: Antibacterial activity against Bacteroides buccae (ATCC 67792) at a concentration of 200 ug/mL; not active. In kind it is functional, organism-based. The note with it: Segatella buccae.
Assay [8] relates to Pasteurella multocida. The assay can be described thus: Antibacterial activity against Pasteurella multocida (ATCC 61096) at a concentration of 200 ug/mL; not active. Type of assay: functional, organism-based.
In assay [9] the test system is Pasteurella sp. Nature of the assay: Antibacterial activity against Pasteurella sp.(ATCC 67777) at a concentration of 200 ug/mL; not active. Type of assay: functional, organism-based.
In assay [10] the test system is Porphyromonas gingivalis. Nature of the assay: Antibacterial activity against Porphyromonas gingivalis sp.(ATCC D23C) at a concentration of 200 ug/mL. In kind it is functional, organism-based.
The test system of assay [11] is Porphyromonas canoris. Nature of the assay: Antibacterial activity against Porphyromonas canoris (ATCC NCTC 12836) at a concentration of 200 ug/mL; Active. Type of assay: functional, organism-based.
Assay [12] has as its system Bacteroides uniformis. The assay can be described thus: Antibacterial activity against Bacteroides uniformis (ATCC 62723) at a concentration of 200 ug/mL; not active. Type of assay: functional, organism-based.
For assay [13], the system named is Bacteroides ovatus. The assay can be described thus: Antibacterial activity against Bacteroides ovatus (ATCC 66640) at a concentration of 200 ug/mL; not active. In kind it is functional, organism-based.
Assay [14] deals with Escherichia coli. Nature of the assay: Antibacterial activity against Escherichia coli (ATCC NCTC 6571) at a concentration of 200 ug/mL; not active. Type of assay: functional, organism-based.
Assay [15] relates to Pseudoflavonifractor capillosus. Nature of the assay: Antibacterial activity against Bacteroides capillosus (ATCC 60802) at a concentration of 200 ug/mL; not active. In kind it is functional, organism-based.
Assay [16] concerns Propionibacterium. The assay can be described thus: Antibacterial activity against Propionibacterium sp.(ATCC 72661) at a concentration of 200 ug/mL; not active. Type of assay: functional, organism-based.
The subject of assay [17] is Staphylococcus aureus. The assay can be described thus: Antibacterial activity against Staphylococcus aureus (ATCC NCTC 6571) at a concentration of 200 ug/mL; not active. Type of assay: functional, organism-based.
Assay [18] concerns Pasteurella sp. Nature of the assay: Antibacterial activity against Pasteurella sp.(ATCC 67535) at a concentration of 200 ug/mL; not active. In kind it is functional, organism-based.
In assay [19] the test system is Fusobacterium sp. Nature of the assay: Antibacterial activity against Fusobacterium sp.(ATCC 74714) at a concentration of 200 ug/mL; not active. Type of assay: functional, organism-based.
Assay [20] has as its system Hoylesella oralis. Nature of the assay: Antibacterial activity against Bacteroides oralis (ATCC 72708) at a concentration of 200 ug/mL; not active. In kind it is functional, organism-based.
Assay [21] concerns Pasteurella sp. The assay can be described thus: Antibacterial activity against Pasteurella sp.(ATCC 69527) at a concentration of 200 ug/mL; not active. In kind it is functional, organism-based.
Assay [22] concerns Prevotella bivia. Nature of the assay: Antibacterial activity against Bacteroides bivus (ATCC 64362) at a concentration of 200 ug/mL; not active. Type of assay: functional, organism-based.
Assay [23] deals with Fusobacterium mortiferum. The assay can be described thus: Antibacterial activity against Fusobacterium mortiferum (ATCC 63425) at a concentration of 200 ug/mL; not active. In kind it is functional, organism-based.
In assay [24] the test system is Corynebacterium sp. Nature of the assay: Antibacterial activity against Corynebacterium sp. (ATCC 68984) at a concentration of 200 ug/mL; Active. Type of assay: functional, organism-based.
Assay [25] concerns Pasteurella sp. Nature of the assay: Antibacterial activity against Pasteurella sp.(ATCC 67535) at a concentration of 200 ug/mL; Active. Type of assay: functional, organism-based.
The subject of assay [26] is Propionibacterium. Nature of the assay: Antibacterial activity against Propionibacterium sp.(ATCC 72661) at a concentration of 200 ug/mL; Active. Type of assay: functional, organism-based.
For assay [27], the system named is Actinomyces sp. Nature of the assay: Antibacterial activity against Actinomyces sp.(ATCC 70710) at a concentration of 200 ug/mL; Active. In kind it is functional, organism-based.
Assay [28] deals with Pasteurella sp. The assay can be described thus: Minimum inhibitory concentration against Pasteurella sp.(ATCC 67777) using agar method. In kind it is functional.
The subject of assay [29] is Hoylesella oralis. The assay can be described thus: Minimum inhibitory concentration against Bacteroides oralis (ATCC 72708) using agar method. Type of assay: functional.
Assay [30] deals with Bacteroides uniformis. Nature of the assay: Minimum inhibitory concentration against Bacteroides uniformis (ATCC 62723) using agar method. Type of assay: functional.
Assay [31] relates to Fusobacterium mortiferum. Nature of the assay: Minimum inhibitory concentration against Fusobacterium mortiferum (ATCC 63425) using agar method. Type of assay: functional.
The subject of assay [32] is Escherichia coli. The assay can be described thus: Minimum inhibitory concentration against Escherichia coli (ATCC NCTC 6571) using agar method. Type of assay: functional.
The test system of assay [33] is Schaalia meyeri. The assay can be described thus: Minimum inhibitory concentration against Actinomyces meyeri (ATCC 61789) using agar method. In kind it is functional.
Assay [34] concerns Pasteurella sp. The assay can be described thus: Minimum inhibitory concentration against Pasteurella sp.(ATCC 69527) using agar method. Type of assay: functional.
In assay [35] the test system is Prevotella bivia. Nature of the assay: Minimum inhibitory concentration against Bacteroides bivus (ATCC 64362) using agar method. Type of assay: functional.
Assay [36] relates to Bacteroides ovatus. Nature of the assay: Minimum inhibitory concentration against Bacteroides ovatus (ATCC 66640) using agar method. Type of assay: functional.
Assay [37] deals with Pasteurella multocida. The assay can be described thus: Minimum inhibitory concentration against Pasteurella multocida (ATCC 61096) using agar method. Type of assay: functional.
In assay [38] the test system is Porphyromonas gingivalis. Nature of the assay: Minimum inhibitory concentration against Porphyromonas gingivalis sp.(ATCC D23C) using agar method. In kind it is functional.
In assay [39] the test system is Prevotella buccae. The assay can be described thus: Minimum inhibitory concentration against Bacteroides buccae (ATCC 67792) using agar method. To be noted: Segatella buccae. Type of assay: functional.
The test system of assay [40] is Pasteurella sp. The assay can be described thus: Minimum inhibitory concentration against Pasteurella sp.(ATCC 67535) using agar method. Type of assay: functional.
Assay [41] concerns Pseudoflavonifractor capillosus. The assay can be described thus: Minimum inhibitory concentration against Bacteroides capillosus (ATCC 60802) using agar method. Type of assay: functional.
Assay [42] deals with Pasteurella multocida. Nature of the assay: Minimum inhibitory concentration against Pasteurella multocida (ATCC 63560) using agar method. Type of assay: functional.
Assay [43] has as its system Staphylococcus aureus. Nature of the assay: Minimum inhibitory concentration against Staphylococcus aureus (ATCC NCTC 6571) using agar method. Type of assay: functional.
For assay [44], the system named is Corynebacterium sp. The assay can be described thus: Minimum inhibitory concentration against Corynebacterium sp. (ATCC 68984) using agar method. Type of assay: functional.
Assay [45] deals with Pasteurella sp. Nature of the assay: Minimum inhibitory concentration against Pasteurella sp.(ATCC 71886) using agar method. Type of assay: functional.

As to `CCC[C@@H]1OC(=O)CCCCCCCCCCCCCC/C=C/C[C@H](O)[C@H](O)[C@@H](O)[C@H](O)[C@H](O)CNC1=O`, the result in [1], in assay [6] and in [11] was Active. The result in assay [2], in [3], in [4], in [5], in assay [7] and in [8] was inactive. For the same compound, the result in assay [9], in assay [10], in assay [12], in assay [13], in [14] and in assay [15] was inactive. The result in assay [16], in assay [17], in [18], in assay [19], in [20] and in assay [21] was inactive. The result in [22] and in assay [23] was inactive.
Turning to `CCC[C@@H]1OC(=O)CCCCCCCCCCCCCC/C=C(\C)CC[C@@H](O)[C@@H](O)C[C@H](O)CNC1=O`, the outcome in assay [1], in assay [24], in assay [25], in [6], in assay [26] and in assay [11] was Active. Also, the outcome in assay [27] was Active. For the same compound, the result in assay [3], in assay [4], in [7], in assay [8], in assay [9] and in assay [10] was inactive. Further, the outcome in assay [12], in assay [13], in assay [14], in [15], in assay [17] and in [19] was inactive. Moreover, the outcome in assay [20], in [21], in assay [22] and in assay [23] was inactive.
For the compound `CCC[C@@H]1OC(=O)[C@@H](C)C[C@H](C)CCCCC(=O)CCC[C@@H](CC)CC/C=C(\COC)CC[C@@H](O)[C@@H](O)C[C@H](O)CNC1=O`, the MIC in assay [28] is 1.56 µg/mL (≈ 2.49 µM); in assay [29], 6.25 µg/mL (≈ 9.99 µM); in [30], 12.5 µg/mL (≈ 20 µM); in assay [31], above 50 µg/mL; in [32], 3.12 µg/mL (≈ 4.98 µM); in [33], 12.5 µg/mL (≈ 20 µM). Also, the minimal inhibitory concentration (MIC) in assay [34] was 3.12 µg/mL (≈ 4.98 µM); in [35] it was 6.25 µg/mL (≈ 9.99 µM); in assay [36], 12.5 µg/mL (≈ 20 µM); in assay [37] it was 1.56 µg/mL (≈ 2.49 µM); in assay [38], 1.56 µg/mL (≈ 2.49 µM); in assay [39], above 50 µg/mL. Further, the MIC in assay [40] was 0.78 µg/mL (≈ 1.25 µM); in [41] it was 12.5 µg/mL (≈ 20 µM); in [42], 0.78 µg/mL (≈ 1.25 µM); in assay [43] it was above 50 µg/mL; in [44], 12.5 µg/mL (≈ 20 µM); in assay [45] it was 0.78 µg/mL (≈ 1.25 µM).
